Measurements reported in the supplement of paper PMC10307832.

Compound: CO[C@H]1C[C@@H]2CC[C@@H](C)[C@@](O)(O2)C(=O)C(=O)N2CCCC[C@H]2C(=O)O[C@H]([C@H](C)C[C@@H]2CC[C@@H](OCCO)[C@H](OC)C2)CC(=O)[C@H](C)/C=C(\C)[C@@H](O)[C@@H](OC)C(=O)[C@H](C)C[C@H](C)/C=C/C=C/C=C/1C [Everolimus] + COc1cc2c(Oc3ccc(NC(=O)C4(C(=O)Nc5ccc(F)cc5)CC4)cc3F)ccnc2cc1OCCCN1CCOCC1 [Foretinib] (partner 0.25 µM)
Test: relative viability (nuclei count vs DMSO), 5 days (fraction); higher = more cells survive
Summary of the method: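 Relative viability is defined as nuclei in treated wells over nuclei in vehicle wells. Duplicate plates were run and medians reported. Lung cancer cell lines in 1536-well plates were dosed by pin tool one day after seeding, with one drug or with a fixed anchor-drug dose plus five library-drug doses (not always all listed) in √10 steps, and nuclei were counted after 5 days.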

LCLC-97TM1 showed a relative viability (first compound 0.01 µM) of 0.833, a relative viability (first compound 0.03162 µM) of 0.562 and a relative viability (first compound 0.1 µM) of 0.915. It also gave a relative viability (first compound 0.3162 µM) of 0.904 and a relative viability (first compound 1 µM) of 0.862.

Cell Line HARA has a relative viability (first compound 0.01 µM) of 0.754, a relative viability (first compound 0.03162 µM) of 0.847 and a relative viability (first compound 0.3162 µM) of 0.793. For the same cell line, the relative viability (first compound 1 µM) was 0.845.

For HCC-78, the relative viability (first compound 0.01 µM) was 0.496, the relative viability (first compound 0.03162 µM) was 0.477 and the relative viability (first compound 0.1 µM) was 0.447. The relative viability (first compound 0.3162 µM) was 0.51 and the relative viability (first compound 1 µM) was 0.391.

NCI-H1666 was tested, and the relative viability (first compound 0.01 µM) was 0.885, the relative viability (first compound 0.03162 µM) was 0.925 and the relative viability (first compound 0.1 µM) was 0.972. It also gave a relative viability (first compound 0.3162 µM) of 0.926 and a relative viability (first compound 1 µM) of 0.875.

For NCI-H2347, the relative viability (first compound 0.01 µM) was 0.855, the relative viability (first compound 0.03162 µM) was 0.499 and the relative viability (first compound 0.1 µM) was 0.511. It also gave a relative viability (first compound 0.3162 µM) of 0.684 and a relative viability (first compound 1 µM) of 0.552.

NCI-H838 was tested, and the relative viability (first compound 0.01 µM) was 0.586, the relative viability (first compound 0.03162 µM) was 0.629 and the relative viability (first compound 0.1 µM) was 0.518. It also gave a relative viability (first compound 0.3162 µM) of 0.551 and a relative viability (first compound 1 µM) of 0.56.

NCI-H2023 showed a relative viability (first compound 0.01 µM) of 0.503, a relative viability (first compound 0.03162 µM) of 0.404 and a relative viability (first compound 0.1 µM) of 0.424. The relative viability (first compound 0.3162 µM) was 0.358 and the relative viability (first compound 1 µM) was 0.376.

Work on 201T yielded a relative viability (first compound 0.01 µM) of 0.996, a relative viability (first compound 0.03162 µM) of 0.913 and a relative viability (first compound 0.1 µM) of 0.895. It also gave a relative viability (first compound 0.3162 µM) of 0.795 and a relative viability (first compound 1 µM) of 0.865.

NCI-H1915 gave a relative viability (first compound 0.01 µM) of 1.04, a relative viability (first compound 0.03162 µM) of 0.975 and a relative viability (first compound 0.1 µM) of 0.838. It also gave a relative viability (first compound 0.3162 µM) of 0.972 and a relative viability (first compound 1 µM) of 0.79.

NCI-H2009 showed a relative viability (first compound 0.01 µM) of 0.961, a relative viability (first compound 0.03162 µM) of 1.04 and a relative viability (first compound 0.1 µM) of 0.826. The relative viability (first compound 0.3162 µM) was 1.04 and the relative viability (first compound 1 µM) was 0.936.

Cell Line BEN has a relative viability (first compound 0.01 µM) of 0.336, a relative viability (first compound 0.03162 µM) of 0.268 and a relative viability (first compound 0.1 µM) of 0.277. The relative viability (first compound 0.3162 µM) was 0.323 and the relative viability (first compound 1 µM) was 0.35.

PC-14 was tested, and the relative viability (first compound 0.01 µM) was 0.986, the relative viability (first compound 0.03162 µM) was 0.968 and the relative viability (first compound 0.1 µM) was 0.928. For the same cell line, the relative viability (first compound 0.3162 µM) was 0.756 and the relative viability (first compound 1 µM) was 0.854.

SK-MES-1 showed a relative viability (first compound 0.01 µM) of 0.701, a relative viability (first compound 0.03162 µM) of 0.662 and a relative viability (first compound 0.1 µM) of 0.638. It also gave a relative viability (first compound 0.3162 µM) of 0.501 and a relative viability (first compound 1 µM) of 0.547.

For NCI-H727, the relative viability (first compound 0.01 µM) was 0.67, the relative viability (first compound 0.03162 µM) was 0.569 and the relative viability (first compound 0.1 µM) was 0.611. For the same cell line, the relative viability (first compound 0.3162 µM) was 0.603 and the relative viability (first compound 1 µM) was 0.425.

In the case of NCI-H1355, the relative viability (first compound 0.01 µM) was 0.606, the relative viability (first compound 0.03162 µM) was 0.548 and the relative viability (first compound 0.1 µM) was 0.477. It also gave a relative viability (first compound 0.3162 µM) of 0.421 and a relative viability (first compound 1 µM) of 0.482.

For NCI-H1975, the relative viability (first compound 0.01 µM) was 0.765, the relative viability (first compound 0.03162 µM) was 0.67 and the relative viability (first compound 0.1 µM) was 0.714. It also gave a relative viability (first compound 0.3162 µM) of 0.748 and a relative viability (first compound 1 µM) of 0.579.

Cell Line LK-2 has a relative viability (first compound 0.01 µM) of 0.638, a relative viability (first compound 0.1 µM) of 0.583 and a relative viability (first compound 0.3162 µM) of 0.656. For the same cell line, the relative viability (first compound 1 µM) was 0.679.

NCI-H661 was tested, and the relative viability (first compound 0.01 µM) was 0.876, the relative viability (first compound 0.03162 µM) was 0.702 and the relative viability (first compound 0.1 µM) was 0.738. The relative viability (first compound 0.3162 µM) was 0.73 and the relative viability (first compound 1 µM) was 0.664.

With HCC-366 the relative viability (first compound 0.01 µM) was 0.794, the relative viability (first compound 0.03162 µM) was 0.888 and the relative viability (first compound 0.1 µM) was 0.873. For the same cell line, the relative viability (first compound 0.3162 µM) was 0.866 and the relative viability (first compound 1 µM) was 0.869.

With HOP-62 the relative viability (first compound 0.01 µM) was 0.903, the relative viability (first compound 0.03162 µM) was 0.835 and the relative viability (first compound 0.1 µM) was 0.776. It also gave a relative viability (first compound 0.3162 µM) of 0.731 and a relative viability (first compound 1 µM) of 0.779.

With NCI-H1703 the relative viability (first compound 0.01 µM) was 0.347, the relative viability (first compound 0.03162 µM) was 0.406 and the relative viability (first compound 0.1 µM) was 0.361. For the same cell line, the relative viability (first compound 0.3162 µM) was 0.338 and the relative viability (first compound 1 µM) was 0.328.

NCI-H1944 gave a relative viability (first compound 0.01 µM) of 0.572, a relative viability (first compound 0.03162 µM) of 0.583 and a relative viability (first compound 0.1 µM) of 0.608. The relative viability (first compound 0.3162 µM) was 0.629 and the relative viability (first compound 1 µM) was 0.658.

Work on SW 1573 yielded a relative viability (first compound 0.01 µM) of 0.584, a relative viability (first compound 0.03162 µM) of 0.647 and a relative viability (first compound 0.1 µM) of 0.589. For the same cell line, the relative viability (first compound 0.3162 µM) was 0.58 and the relative viability (first compound 1 µM) was 0.52.

For LU99A, the relative viability (first compound 0.01 µM) was 0.52, the relative viability (first compound 0.03162 µM) was 0.565 and the relative viability (first compound 0.1 µM) was 0.525. For the same cell line, the relative viability (first compound 0.3162 µM) was 0.519 and the relative viability (first compound 1 µM) was 0.605.

Work on NCI-H647 yielded a relative viability (first compound 0.01 µM) of 0.957, a relative viability (first compound 0.03162 µM) of 0.697 and a relative viability (first compound 0.1 µM) of 0.646. It also gave a relative viability (first compound 0.3162 µM) of 0.776 and a relative viability (first compound 1 µM) of 0.612.

A-427 showed a relative viability (first compound 0.01 µM) of 0.742, a relative viability (first compound 0.03162 µM) of 0.624 and a relative viability (first compound 0.1 µM) of 0.639. The relative viability (first compound 0.3162 µM) was 0.684 and the relative viability (first compound 1 µM) was 0.757.

COR-L 105 showed a relative viability (first compound 0.01 µM) of 0.775, a relative viability (first compound 0.03162 µM) of 0.71 and a relative viability (first compound 0.1 µM) of 0.787. It also gave a relative viability (first compound 0.3162 µM) of 0.709 and a relative viability (first compound 1 µM) of 0.952.

Cell Line NCI-H441 has a relative viability (first compound 0.01 µM) of 0.972, a relative viability (first compound 0.03162 µM) of 0.863 and a relative viability (first compound 0.1 µM) of 0.726. For the same cell line, the relative viability (first compound 0.3162 µM) was 0.833 and the relative viability (first compound 1 µM) was 0.659.

NCI-H2126 showed a relative viability (first compound 0.01 µM) of 0.97, a relative viability (first compound 0.03162 µM) of 0.925 and a relative viability (first compound 0.1 µM) of 0.892. The relative viability (first compound 0.3162 µM) was 0.772 and the relative viability (first compound 1 µM) was 0.73.

Work on EBC-1 yielded a relative viability (first compound 0.01 µM) of 0.109, a relative viability (first compound 0.03162 µM) of 0.108 and a relative viability (first compound 0.1 µM) of 0.103. For the same cell line, the relative viability (first compound 0.3162 µM) was 0.133 and the relative viability (first compound 1 µM) was 0.0957.

NCI-H460 showed a relative viability (first compound 0.01 µM) of 1.01, a relative viability (first compound 0.03162 µM) of 1.01 and a relative viability (first compound 0.1 µM) of 0.969. It also gave a relative viability (first compound 0.3162 µM) of 0.942 and a relative viability (first compound 1 µM) of 1.11.

For SK-LU-1, the relative viability (first compound 0.01 µM) was 0.41, the relative viability (first compound 0.03162 µM) was 0.438 and the relative viability (first compound 0.1 µM) was 0.449. It also gave a relative viability (first compound 0.3162 µM) of 0.432 and a relative viability (first compound 1 µM) of 0.469.

For SW 900, the relative viability (first compound 0.01 µM) was 0.685, the relative viability (first compound 0.03162 µM) was 0.477 and the relative viability (first compound 0.1 µM) was 0.748. It also gave a relative viability (first compound 0.3162 µM) of 0.525 and a relative viability (first compound 1 µM) of 0.508.

NCI-H322M was tested, and the relative viability (first compound 0.01 µM) was 0.695, the relative viability (first compound 0.03162 µM) was 0.655 and the relative viability (first compound 0.1 µM) was 0.666. The relative viability (first compound 0.3162 µM) was 0.78 and the relative viability (first compound 1 µM) was 0.73.

EKVX gave a relative viability (first compound 0.01 µM) of 0.582, a relative viability (first compound 0.03162 µM) of 0.808 and a relative viability (first compound 0.1 µM) of 0.428. It also gave a relative viability (first compound 0.3162 µM) of 0.444 and a relative viability (first compound 1 µM) of 0.555.

Work on NCI-H1734 yielded a relative viability (first compound 0.01 µM) of 0.495, a relative viability (first compound 0.03162 µM) of 0.529 and a relative viability (first compound 0.1 µM) of 0.479. For the same cell line, the relative viability (first compound 0.3162 µM) was 0.467 and the relative viability (first compound 1 µM) was 0.541.

ABC-1 was tested, and the relative viability (first compound 0.01 µM) was 0.82, the relative viability (first compound 0.03162 µM) was 0.826 and the relative viability (first compound 0.1 µM) was 0.645. For the same cell line, the relative viability (first compound 0.3162 µM) was 0.699 and the relative viability (first compound 1 µM) was 0.739.

NCI-H520 showed a relative viability (first compound 0.01 µM) of 0.478, a relative viability (first compound 0.03162 µM) of 0.335 and a relative viability (first compound 0.1 µM) of 0.321. It also gave a relative viability (first compound 0.3162 µM) of 0.434 and a relative viability (first compound 1 µM) of 0.349.
